{
  "source": "patent US20020077465A1",
  "about": "“ADAM polynucleotides, polypeptides, and antibodies” (priority 2000, published 2002)",
  "origin": "cited, not measured here",
  "key": {"[1]": {"tested_on": "HIV"}, "[2]": {"tested_on": "viruses containing the K103N mutation"}, "[3]": {"tested_on": "protease inhibitor-resistant viruses"}, "[4]": {"tested_on": "lamivudine-resistant isolates", "conditions": "a substantial proportion of lamivudine-resistant isolates"}, "[5]": {"target": "T1, MMP-1 (Homo sapiens, UniProt P03956)", "T1 sequence (P03956 100-469)": "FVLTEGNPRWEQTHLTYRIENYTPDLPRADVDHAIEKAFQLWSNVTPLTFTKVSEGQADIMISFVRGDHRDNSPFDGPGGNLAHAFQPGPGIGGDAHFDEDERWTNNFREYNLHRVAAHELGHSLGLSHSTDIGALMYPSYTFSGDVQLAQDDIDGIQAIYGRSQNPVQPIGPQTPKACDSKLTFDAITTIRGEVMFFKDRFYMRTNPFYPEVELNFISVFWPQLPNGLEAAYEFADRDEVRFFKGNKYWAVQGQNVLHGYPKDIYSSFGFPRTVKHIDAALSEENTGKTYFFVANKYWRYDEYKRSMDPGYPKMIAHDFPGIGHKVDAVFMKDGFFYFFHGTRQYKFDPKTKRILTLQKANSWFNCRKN", "conditions": "read-out: IC50 against MMP-1"}, "[6]": {"target": "MMP-9 (Homo sapiens, UniProt P14780)", "sequence (P14780 94-707, species assumed)": "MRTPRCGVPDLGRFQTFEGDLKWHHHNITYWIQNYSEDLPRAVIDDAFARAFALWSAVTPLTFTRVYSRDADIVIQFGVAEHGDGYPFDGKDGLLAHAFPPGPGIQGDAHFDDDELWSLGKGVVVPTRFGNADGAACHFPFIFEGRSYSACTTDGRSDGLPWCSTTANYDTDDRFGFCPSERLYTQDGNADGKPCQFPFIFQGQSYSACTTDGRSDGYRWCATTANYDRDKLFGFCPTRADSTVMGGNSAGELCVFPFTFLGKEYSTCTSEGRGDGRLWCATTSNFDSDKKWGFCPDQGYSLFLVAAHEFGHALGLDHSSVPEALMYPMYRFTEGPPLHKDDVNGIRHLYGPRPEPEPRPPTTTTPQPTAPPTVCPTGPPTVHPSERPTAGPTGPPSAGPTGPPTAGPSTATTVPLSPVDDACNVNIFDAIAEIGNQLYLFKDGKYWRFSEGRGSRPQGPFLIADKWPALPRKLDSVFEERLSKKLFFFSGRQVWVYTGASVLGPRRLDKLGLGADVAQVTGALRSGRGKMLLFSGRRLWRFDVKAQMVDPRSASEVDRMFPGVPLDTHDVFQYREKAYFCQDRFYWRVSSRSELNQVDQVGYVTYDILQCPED", "conditions": "read-out: IC50 against MMP-9"}, "[7]": {"target": "MMP-8 (Homo sapiens, UniProt P22894)", "sequence (P22894 101-467, species assumed)": "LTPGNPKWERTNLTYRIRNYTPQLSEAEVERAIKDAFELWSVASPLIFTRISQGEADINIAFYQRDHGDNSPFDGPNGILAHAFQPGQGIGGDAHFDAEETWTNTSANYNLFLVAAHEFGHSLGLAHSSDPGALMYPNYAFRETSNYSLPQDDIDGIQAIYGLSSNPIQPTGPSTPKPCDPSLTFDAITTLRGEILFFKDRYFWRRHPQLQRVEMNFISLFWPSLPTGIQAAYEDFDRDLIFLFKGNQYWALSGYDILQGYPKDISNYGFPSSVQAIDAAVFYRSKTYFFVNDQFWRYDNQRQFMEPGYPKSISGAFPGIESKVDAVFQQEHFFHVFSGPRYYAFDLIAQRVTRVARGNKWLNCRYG", "conditions": "read-out: IC50 against MMP-8"}, "[8]": {"target": "MMP-3 (Homo sapiens, UniProt P08254)", "sequence (P08254 100-477, species assumed)": "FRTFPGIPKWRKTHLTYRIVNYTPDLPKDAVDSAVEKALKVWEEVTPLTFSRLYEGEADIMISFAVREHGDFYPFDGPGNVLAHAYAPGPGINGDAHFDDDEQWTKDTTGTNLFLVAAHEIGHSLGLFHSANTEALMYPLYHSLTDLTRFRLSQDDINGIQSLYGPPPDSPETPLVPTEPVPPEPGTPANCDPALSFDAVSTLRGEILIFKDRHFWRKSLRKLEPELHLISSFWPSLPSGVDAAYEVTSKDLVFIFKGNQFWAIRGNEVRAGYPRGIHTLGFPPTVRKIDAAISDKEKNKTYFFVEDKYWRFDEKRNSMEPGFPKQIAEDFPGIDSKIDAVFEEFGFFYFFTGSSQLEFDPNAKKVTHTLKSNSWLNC", "conditions": "read-out: IC50 against MMP-3"}, "[9]": {"tested_on": "human metastatic melanoma (M24 cells)"}, "[10]": {"tested_on": "M24 cells", "conditions": "murine metastasis model"}, "[11]": {"tested_on": "AZT/3TC-resistant virus"}, "[12]": {"tested_on": "angiogenesis", "conditions": "both in vitro and in vivo"}},
  "note": "Where a SMILES comes first, the peptide text is derived from it. [ ]: non-standard residue; d: D form. The star is where a group is joined. 4Abz = Nc1ccc(C(=O)O)cc1; NHOH = ON*",
  "data": [
    {"molecule": "CC[C@H]1C(=O)Nc2ccc(F)cc2N1C(=O)OC(C)C", "note": "[GW-420867X]", "values": [
      {"measurement": "greater activity than HBY097", "setting": "[1]; relative to HBY097", "value": 25, "unit": "fold"},
      {"measurement": "activity against viruses containing the K103N mutation / K103N mutants", "setting": "[2]", "value": "active against K103N mutants"}
    ]},
    {"molecule": "Cc1ccccc1CNC(=O)[C@H]1N(C(=O)[C@@H](O)[C@H](Cc2ccccc2)NC(=O)c2cccc(O)c2C)CSC1(C)C", "note": "[AG-1776]", "values": [
      {"measurement": "in vitro activity against protease inhibitor-resistant viruses", "setting": "[3]", "value": "in vitro activity"}
    ]},
    {"molecule": "Nc1ccn([C@H]2CO[C@@H](CO)S2)c(=O)n1", "note": "[dOTC]", "values": [
      {"measurement": "activity against lamivudine-resistant isolates", "setting": "[4]", "value": "retains activity"}
    ]},
    {"molecule": "CC(C)C[C@@H](NC(=O)[C@@H]1CCCN1C(=O)CNC(=O)c1ccc(N)cc1)C(=O)N[C@H](C)C(=O)NO", "note": "[MMP inhibitor I] (H-[4Abz]GP[dL][dA]-{NHOH})", "values": [
      {"measurement": "IC50", "setting": "[5]", "value": 1, "unit": "µM"},
      {"measurement": "IC50", "setting": "[6]", "value": 30, "unit": "µM"},
      {"measurement": "IC50", "setting": "[7]", "value": 1, "unit": "µM"},
      {"measurement": "IC50", "setting": "[8]", "value": 150, "unit": "µM"}
    ]},
    {"molecule": "Nc1nc(=O)n([C@@H]2CS[C@H](CO)O2)cc1F", "note": "[COVIRACIL, emtricitabine]", "values": [
      {"measurement": "greater activity in vitro than lamivudine (3TC)", "setting": "[1]; in vitro, relative to lamivudine (3TC)", "value": "3- to 10 fold"}
    ]},
    {"molecule": "contortrostatin", "values": [
      {"measurement": "inhibition of M24 cell adhesion to laminin", "setting": "[9]; laminin", "value": "not"},
      {"measurement": "inhibition of M24 cell adhesion to type I collagen, vitronectin, and fibronectin", "setting": "[9]; type I collagen, vitronectin, fibronectin", "value": "inhibit"},
      {"measurement": "inhibition of lung colonization of M24 cells", "setting": "[10]", "value": "inhibits"}
    ]},
    {"molecule": "C[C@H](Sc1nc(N)cc(Cl)n1)c1cc2ccoc2cn1", "note": "[PNU-142721]", "values": [
      {"measurement": "greater activity than its predecessor delavirdine", "setting": "[1]; relative to delavirdine", "value": "20- to 50 fold"},
      {"measurement": "activity against viruses containing the K103N mutation / K103N mutants", "setting": "[2]", "value": "active against K103N mutants"}
    ]},
    {"molecule": "Nc1nc(=O)n([C@H]2C=C[C@@H](CO)O2)cc1F", "note": "[D-D4FC]", "values": [
      {"measurement": "activity against AZT/3TC-resistant virus", "setting": "[11]", "value": "activity against AZT/3TC-resistant virus"}
    ]},
    {"molecule": "METH1 polypeptides: metalloprotease thrombospondin polypeptides encoded by the human METH1 gene (WO99/37660) (protein, UniProt Q9UHI8 253-967, looked up) A disintegrin and …: FVSSHRYVETMLVADQSMAEFHGSGLKHYLLTLFSVAARLYKHPSIRNSVSLVVVKILVIHDEQKGPEVTSNAALTLRNFCNWQKQHNPPSDRDAEHYDTAILFTRQDLCGSQTCDTLGMADVGTVCDPSRSCSVIEDDGLQAAFTTAHELGHVFNMPHDDAKQCASLNGVNQDSHMMASMLSNLDHSQPWSPCSAYMITSFLDNGHGECLMDKPQNPIQLPGDLPGTSYDANRQCQFTFGEDSKHCPDAASTCSTLWCTGTSGGVLVCQTKHFPWADGTSCGEGKWCINGKCVNKTDRKHFDTPFHGSWGMWGPWGDCSRTCGGGVQYTMRECDNPVPKNGGKYCEGKRVRYRSCNLEDCPDNNGKTFREEQCEAHNEFSKASFGSGPAVEWIPKYAGVSPKDRCKLICQAKGIGYFFVLQPKVVDGTPCSPDSTSVCVQGQCVKAGCDRIIDSKKKFDKCGVCGGNGSTCKKISGSVTSAKPGYHDIITIPTGATNIEVKQRNQRGSRNNGSFLAIKAADGTYILNGDYTLSTLEQDIMYKGVVLRYSGSSAALERIRSFSPLKEPLTIQVLTVGNALRPKIKYTYFVKKKKESFNAIPTFSAWVIEEWGECSKSCELGWQRRLVECRDINGQPASECAKEVKPASTRPCADHPCPQWQLGEWSSCSKTCGKGYKKRSLKCLSHDGGVLSHESCDPLKKPKHFIDFCTMAECS", "values": [
      {"measurement": "inhibition of angiogenesis", "setting": "[12]", "value": "potent inhibitors"}
    ]}
  ]
}
